US10793519B2, “Ultra short acting anti-arrhythmic agents” (Academic Pharmaceuticals Incorporated, priority 2018, dated 2020)
Like-named read-outs stand apart in the source and are kept apart here.

Assays:
hERG channel = hERG channel (Homo sapiens, UniProt Q12809); assay: whole-cell voltage-clamp tail current / current density experiments in hERG-HEK cells
Procedure: A set of whole-cell, voltage-clamp experiments was performed using a HEKA® EPC 9 amplifier. Data was recorded and analyzed using the HEKA® Patchmaster and Fitmaster software. At the time of the recordings, cell culture media was replaced by a bath solution (containing (mM): 137 NaCl, 4 KCl, 1.8 CaCl2, 10 HEPES, and 10 glucose, pH adjusted to 7.4 with NaOH). The pipette solution containing different concentrations of the drug to test was introduced. Borosilicate glass electrodes (tip resistant 2-5 MΩ) were filled with internal solution (containing (mM): 130 KCl, 1 MgCl2, 5 EGTA, 5 MgATP and 10 HEPES, pH adjusted to 7.2 with KOH). Tail currents were measured at repolarizing test potentials (−100 to +40 mV, 4 seconds each) following a one second depolarizing step to +60 mV from a holding potential of −80 mV. Cell recordings were performed in a minimum of 2 plates (3-5 cells/plate) for each EFV concentration and compared to control.
In hERG-HEK cells that were transiently […] with CYP2B6*1 cDNA, tail current recordings were performed using the following 2-sweep voltage clamp protocol: membrane potential was held at −80 mV, increased to 60 mV (1 second), and currents were measured during two repolarizing steps at −100 and −20 mV (5 seconds each). This protocol was performed twice for each cell at 1 and 2 minutes following cytosolic access and exposure to the pipette solution to evaluate the influence of incubation time on drug mediated alterations in hERG channel conductivity. A sigmoidal Emax model was fit to the EFV inhibitory effect on 1hERG using Prism (GraphPad Software, Inc., La Jolla, Calif.).
Sotalol ester, soestolol (ester A, Table 1, Example 1) and its corresponding acid (ester C) were evaluated. The studies were performed blinded with the operator unaware of the chemical structure of Ester A or Ester C.

[1] = cited from earlier work

Chain of hERG channel (Q12809 whole entry): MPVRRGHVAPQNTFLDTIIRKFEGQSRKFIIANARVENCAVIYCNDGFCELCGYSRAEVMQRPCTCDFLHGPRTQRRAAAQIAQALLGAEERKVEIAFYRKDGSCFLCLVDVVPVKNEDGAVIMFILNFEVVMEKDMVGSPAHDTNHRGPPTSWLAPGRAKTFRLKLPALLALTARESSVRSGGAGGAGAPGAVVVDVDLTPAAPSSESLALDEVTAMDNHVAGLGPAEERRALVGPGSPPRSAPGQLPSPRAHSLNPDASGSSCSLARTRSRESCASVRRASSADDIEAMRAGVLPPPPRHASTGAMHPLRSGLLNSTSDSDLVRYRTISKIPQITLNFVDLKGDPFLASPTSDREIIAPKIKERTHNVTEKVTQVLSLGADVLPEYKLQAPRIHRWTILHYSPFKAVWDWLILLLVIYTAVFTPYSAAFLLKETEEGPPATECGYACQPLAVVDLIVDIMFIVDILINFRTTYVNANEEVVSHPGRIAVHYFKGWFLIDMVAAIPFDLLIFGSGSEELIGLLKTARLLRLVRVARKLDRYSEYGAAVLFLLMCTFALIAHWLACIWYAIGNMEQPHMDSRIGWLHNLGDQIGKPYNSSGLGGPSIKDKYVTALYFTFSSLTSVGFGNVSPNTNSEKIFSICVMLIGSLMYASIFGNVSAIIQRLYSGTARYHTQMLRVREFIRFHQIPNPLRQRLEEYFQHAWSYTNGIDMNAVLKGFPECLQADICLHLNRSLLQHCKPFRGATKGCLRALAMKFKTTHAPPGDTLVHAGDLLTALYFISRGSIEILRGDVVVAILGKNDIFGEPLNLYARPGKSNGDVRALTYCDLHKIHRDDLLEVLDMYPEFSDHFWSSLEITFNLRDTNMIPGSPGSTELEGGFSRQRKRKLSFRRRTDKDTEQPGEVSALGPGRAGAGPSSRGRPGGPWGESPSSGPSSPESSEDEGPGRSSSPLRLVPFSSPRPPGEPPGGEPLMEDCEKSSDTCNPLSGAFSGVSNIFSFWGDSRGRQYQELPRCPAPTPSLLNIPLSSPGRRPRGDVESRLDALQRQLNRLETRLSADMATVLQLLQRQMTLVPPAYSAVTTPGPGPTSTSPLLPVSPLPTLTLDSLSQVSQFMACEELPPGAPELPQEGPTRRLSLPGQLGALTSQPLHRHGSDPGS

SMILES: COC(=O)CS(=O)(=O)Nc1ccc(C(O)CNC(C)C)cc1 (stereo not drawn) [Ester A]
- inhibition of K current (current density), FIG. 1 (hERG channel): dose dependent reduction in current
- potency on K current compared with sotalol, FIG. 1 (hERG channel): significantly more potent than the corresponding sotalol dose

SMILES: CC(C)NCC(O)c1ccc(NS(=O)(=O)CC(=O)O)cc1 (stereo not drawn) [Ester C]
- activity on current, FIG. 2 (hERG channel): no activity

SMILES: CC(C)NCC(O)c1ccc(NS(C)(=O)=O)cc1 (stereo not drawn) [sotalol]
- reduction in current, FIG. 2 (hERG channel; 5 μM): dose related reduction in current
- reduction in current, FIG. 2 (hERG channel; 50 μM): dose related reduction in current
- inhibition of K current (current density), FIG. 1 (hERG channel; 5 μm): reduction in current
- inhibition of K current (current density), FIG. 1 (hERG channel; 10 μm): further reduction
- half-life ([1]; in man, on average): twelve
- terminal elimination half-life ([1]; in vivo): 10 to 20 h
